Experiment [1] has as its system Leishmania infantum. The experiment can be described thus: Antileishmanial activity against Leishmania infantum infected in BALB/c mouse assessed as reduction of parasite burden in spleen at 2.5 mg/kg for 15 days relative to control. In kind it is functional. Set-up: scale not given: the % may be the effect or the level left. To be noted: time 15 day.
Experiment [2] relates to Leishmania amazonensis. The experiment can be described thus: Antileishmanial activity against Leishmania amazonensis promastigotes assessed as parasite growth inhibition incubated for 24 hrs. Format: functional, organism-based.
Experiment [3] relates to Leishmania donovani. The experiment in a line: Antileishmanial activity against Leishmania donovani promastigotes infected in golden hamster assessed as reduction in parasite load in spleen at 3 mg/kg administered twice per week for 4 weeks relative to control. Format: functional. Set-up: scale not given: the % may be the effect or the level left.
The next experiment addresses T1, DNA topoisomerase I (Leishmania donovani (strain BPK282A1), UniProt E9BRC0).
T1 sequence (E9BRC0 whole entry): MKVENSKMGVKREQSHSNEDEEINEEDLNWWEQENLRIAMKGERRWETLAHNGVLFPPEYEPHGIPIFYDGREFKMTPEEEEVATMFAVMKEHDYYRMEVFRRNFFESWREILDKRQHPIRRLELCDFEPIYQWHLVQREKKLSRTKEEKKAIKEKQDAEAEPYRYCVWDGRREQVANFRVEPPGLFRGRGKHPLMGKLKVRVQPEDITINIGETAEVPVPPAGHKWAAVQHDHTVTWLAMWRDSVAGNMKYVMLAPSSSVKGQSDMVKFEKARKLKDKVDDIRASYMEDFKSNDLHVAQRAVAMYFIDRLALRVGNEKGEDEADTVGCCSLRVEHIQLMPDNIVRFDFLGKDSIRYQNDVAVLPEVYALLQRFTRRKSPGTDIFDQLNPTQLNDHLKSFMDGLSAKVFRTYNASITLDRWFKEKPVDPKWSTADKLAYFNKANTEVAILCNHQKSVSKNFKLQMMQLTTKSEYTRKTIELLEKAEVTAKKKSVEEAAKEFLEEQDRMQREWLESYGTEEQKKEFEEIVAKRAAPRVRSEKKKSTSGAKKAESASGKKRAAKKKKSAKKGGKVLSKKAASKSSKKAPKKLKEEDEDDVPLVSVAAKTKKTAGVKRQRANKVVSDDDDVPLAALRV
The experiment can be described thus: Inhibition of Leishmania donovani DNA topoisomerase I.

Another experiment relates to Leishmania mexicana. The experiment can be described thus: Antileishmanial activity against Leishmania mexicana promastigotes MHOM/B2/62/BEL21 assessed as reduction in parasite growth by tryphan blue staining based analysis. Format: functional, organism-based.
Experiment [4] has as its system Leishmania donovani. The experiment in a line: Antileishmanial activity against Leishmania donovani promastigotes assessed as parasite growth inhibition incubated for 72 hrs by Alamar blue staining based analysis. In kind it is functional, organism-based. For orientation: Resazurin is reduced to fluorescent resorufin, in cell work by metabolically active cells.
Experiment [5] deals with Leishmania donovani. The experiment can be described thus: Antileishmanial activity against Leishmania donovani intracellular amastigotes assessed as parasite growth inhibition. In kind it is functional, organism-based.
The test system of experiment [6] is Leishmania amazonensis. The experiment in a line: Antileishmanial activity against Leishmania amazonensis intracellular amastigotes assessed as parasite growth inhibition. Format: functional, organism-based.
Experiment [7] concerns Leishmania amazonensis. The experiment can be described thus: Antiprotozoal activity against Leishmania amazonensis axenic amastigotes assessed as growth inhibition measured after 5 days by MTT assay. Format: functional, organism-based. To be noted: 120 h.
Experiment [8] in a line: Inhibition of Leishmania braziliensis DNA topoisomerase I.
Experiment [9] has as its system Leishmania infantum. The experiment in a line: Antileishmanial activity against Leishmania infantum MCAN/ES/ 89/IPZ229/1/89 axenic amastigotes assessed as reduction in parasite viability treated for 24 hrs by PI staining based flow cytometry. To be noted: MCAN/ES/ 89/IPZ229/1/89, 24 h. In kind it is functional, organism-based.
Experiment [10] is described as follows: Inhibition of Leishmania infantum Trypanothione reductase.
In experiment [11] the test system is Leishmania infantum. The experiment in a line: Antileishmanial activity against Leishmania infantum MCAN/ES/ 89/IPZ229/1/89 promastigote assessed as reduction in parasite viability incubated for 24 hrs by PI staining based flow cytometry. Format: functional, organism-based. To be noted: MCAN/ES/ 89/IPZ229/1/89, 24 h. On the technique in general: In flow cytometry, cells or beads pass a laser one at a time.

For experiment [12], the system named is Leishmania infantum. The experiment in a line: Antileishmanial activity against Leishmania infantum amastigotes assessed as inhibition of parasite growth. In kind it is functional, organism-based.
Experiment [13] has as its system Leishmania infantum. The experiment in a line: Inhibition of Leishmania infantum Arginase expressed in Escherichia coli BL21 (DE3) at 100 uM by enzymatic assay relative to control.
Experiment [14] relates to Leishmania infantum. The experiment can be described thus: Inhibition of Leishmania infantum promastigotes Arginase expressed in Escherichia coli BL21 (DE3) at 100 uM by enzymatic assay relative to control.
Experiment [15] has as its system Leishmania infantum. The experiment in a line: Antileishmanial activity against GFP-expressing Leishmania infantum intracellular amastigotes infected in human THP-1 derived macrophage cells assessed as reduction in parasite viability measured for 72 hrs by resazurin/alamar blue fluorometric assay. In kind it is functional, organism-based. To be noted: THP-1, 72 h.

Experiment [16] relates to Leishmania donovani. The experiment can be described thus: Antileishmanial activity against Leishmania donovani Ag83 amastigotes infected in BALB/c mouse macrophage assessed as cell viability incubated for 48 hrs by PI staining based analysis. Format: functional, organism-based. To be noted: Ag83, 48 h.
Experiment [17] is described as follows: Inhibition of recombinant rat liver arginase.
Experiment [18] relates to Leishmania donovani. The experiment in a line: Antileishmanial activity against Leishmania donovani MHOM/IN/83/AG83 promastigotes infected in BALB/c mouse assessed as reduction of parasite burden in spleen at 20 mg/kg per day relative to control. Format: functional. Set-up: scale not given: the % may be the effect or the level left.
Experiment [19] has as its target T2, Arginase (Leishmania amazonensis, UniProt O96394). The experiment can be described thus: Inhibition of Leishmania amazonensis Arginase.
Experiment [20] deals with T2, Arginase. The experiment can be described thus: Inhibition of Leishmania amazonensis Arginase assessed as inhibition constant.
The subject of experiment [21] is Leishmania amazonensis. The experiment can be described thus: Antileishmanial activity against Leishmania amazonensis axenic promastigotes assessed as inhibition of parasite growth incubated for 72 hrs by MTT colorimetric assay. In kind it is functional, organism-based. In general terms: Tetrazolium dyes change colour on reduction, which living cells bring about.

The test system of experiment [22] is Leishmania amazonensis. The experiment in a line: Antileishmanial activity against Leishmania amazonensis axenic amastigote assessed as inhibition of parasite growth incubated for 72 hrs by MTT colorimetric assay. In kind it is functional, organism-based.

In brackets after ≈: the same amount, converted by molar mass. Where only a bound is given, the exact number is not on record here.

For `COc1cc2c3c(n(CCCN4CCOCC4)c(=O)c2cc1OC)-c1cc2c(cc1C3=O)OCO2` [INDOTECAN], in the experiment on Leishmania infantum [1], the Activity was determined as 80%.

With `CCN(CC)CCOC(=O)c1ccc(NCCC(=O)c2ccc([N+](=O)[O-])cc2)cc1`, the IC50 (commonly the concentration that gives 50% inhibition) in the experiment on Leishmania amazonensis [2] is 12.4 µM.

In the case of `O=C(Nc1ccc(F)c(-c2ccn3c(N4CCOCC4)cnc3n2)c1)N1CCCC1` [GSK-3494245], the Activity in the experiment with Leishmania donovani [3] was 95%.

The compound `CC(=O)Oc1ccc(OC(C)=O)c2cc3c(cc12)CCCC3(C)C` showed an IC50 against DNA topoisomerase I greater than 100 µM.

In the case of `CCc1ccc2c(c1)C1c3ccccc3CC1C(c1ccccn1)N2` (stereo unspecified), the 50% inhibitory concentration (IC50) in the experiment with Leishmania mexicana worked out at 1 µg/mL (≈ 3.06 µM).

As to `CCCCCCCCCCCCCCCCOP(=O)([O-])OCC[N+](C)(C)C` [MILTEFOSINE], in the experiment with Leishmania mexicana, the concentration for half-maximal inhibition (IC50) is 2.18 µg/mL (≈ 5.35 µM).

As for `COc1cc(C)cc2c1C(=O)C1OC1(c1c(C)cc3c(c1OC)C(=O)C1OC1C3=O)C2=O` (stereo unspecified), the IC50 stood at 20.7 µM with Leishmania donovani [4], 20.7 µM in the experiment with Leishmania donovani [5] and 0.18 µM with Leishmania amazonensis [6].

As to `COc1ccc2c(c[n+](C)c3c4cc5c(cc4ccc23)OCO5)c1OC` [CHELERYTHRINE], the half-inhibitory concentration (IC50) with Leishmania amazonensis [7] came out at 0.03 µM.

In experiment [8], `O=C1C(O)=C(CC2=C(O)C(=O)c3ccccc3C2=O)C(=O)c2ccccc21` gave an IC50 of 71 µM.

Turning to `NCCNCc1nccn1-c1ccc(-c2nc(CCc3ccccc3-c3ccccc3)cs2)c(OCCN2CCNC2=O)c1`, the EC50 in the experiment on Leishmania infantum [9] and with Leishmania infantum [11] was 5.3 µM each time. Besides, half-maximal inhibition in experiment [10] (IC50) was put at 8.6 µM.

In the case of `Fc1ccc(C2Nc3cccnc3[C@H]3c4ccccc4C[C@@H]23)c(F)c1` (stereo partly specified), the IC50 with Leishmania infantum [12] amounted to 0.67 µM.

In the case of `O=C(/C=C/c1ccc([N+](=O)[O-])cc1)c1ccc(Br)cc1`, the inhibition (commonly the drop in the measured response relative to a control, in per cent) worked out at 71.9% in the experiment on Leishmania infantum [13] and 55.2% with Leishmania infantum [14].

Turning to `COc1cccc(C2Nc3cccnc3[C@H]3c4ccccc4C[C@@H]23)c1` (stereo partly specified), the 50% inhibitory concentration (IC50) in the experiment with Leishmania infantum [12] was 0.54 µM.

With `O=C(Cc1cccc2ccccc12)Nc1ccc([Se][Se]c2ccc(NC(=O)c3cccc4ccccc34)cc2)cc1`, the concentration giving a half-maximal response (EC50) (commonly the concentration giving half of the maximal effect) with Leishmania infantum [15] was 0.5 µM.

On to `COC[C@@H](Cc1ccc(OC)c(OC)c1)[C@@H](COC)Cc1cc(OC)c2c(c1)OCO2`, for which the concentration giving a half-maximal response (EC50) in the experiment with Leishmania donovani [16] amounted to 1.26 µM.

On DNA topoisomerase I, `CCCCCCCCCCCCCCCC#CC(=O)O` registered a 50% inhibitory concentration (IC50) of 5.3 µM.

Turning to `O=C(O[C@@H]1Cc2c(O)cc(O)cc2O[C@@H]1c1cc(O)c(O)c(O)c1)c1cc(O)c(O)c(O)c1` [EPIGALOCATECHIN GALLATE], the IC50 in experiment [17] stood at 3.8 µM.

Regarding `CC(C)CN(C[C@@H](O)[C@H](Cc1ccccc1)NC(=O)O[C@H]1CCOC1)S(=O)(=O)c1ccc(N)cc1` [AMPRENAVIR], the Activity with Leishmania donovani [18] was 98%.

Compound `O=C1C(O)=C(C(C2=C(O)C(=O)c3ccccc3C2=O)c2ccc(F)cc2)C(=O)c2ccccc21` yielded an IC50 in [8] of 0.6 µM.

As to `O=C(O)c1cc(O)c(O)c(O)c1` [GALLIC ACID], the IC50 in experiment [17] was 3.8 µM.

Compound `CC1OC(O[C@H]2[C@H](O)[C@@H](OCCc3ccc(O)c(O)c3)OC(CO)[C@H]2OC(=O)/C=C/c2ccc(O)c(O)c2)C(O)C(O)C1O` (stereo partly specified) displayed a 50% inhibitory concentration (IC50) against Arginase [19] of 14 µM. Moreover, the inhibition constant (Ki) (as a rule, the dissociation constant of the complex between target and ligand, obtained from inhibition or displacement) at Arginase [20] came out at 26 µM.

As for `O=C1c2ccccc2-c2c1c1ccc([N+](=O)[O-])cc1c(=O)n2CCCN1CCOCC1`, the Activity with Leishmania infantum [1] came to 80%.

`O=c1cc(-c2ccccc2)oc2c(O)c(O)ccc12` [7,8-DIHYDROXYFLAVONE] gave an IC50 at Arginase [19] of 12 µM.

As for `COc1cccc2c1C(=O)c1c(O)c3c(c(O)c1C2=O)C[C@@](O)(C(=O)CO)C[C@@H]3O[C@H]1C[C@H](N)[C@H](O)[C@H](C)O1` [DOXORUBICIN], the figures for the IC50 with Leishmania amazonensis [21] and in the experiment on Leishmania amazonensis [22] were 11.8 µM and 12 µM, respectively.

The values are drawn from ChEMBL document CHEMBL5620368, “Molecular-level strategic goals and repressors in Leishmaniasis - Integrated data to accelerate target-based heterocyclic scaffolds” (Eur J Med Chem, 2023).
